These results are taken from US20080070946A1, “Hydroxymethylbenzothiazoles Amides” (AstraZeneca AB, priority 2004, published 2008).

The target of one data set is T1, hVR1 (Homo sapiens, UniProt Q8NER1).
T1 construct: expressed in transfected cells
The data set can be described thus: hVR1 FLIPR (Fluorometric Image Plate Reader) screening assay, IC50 determination. The conditions noted are these: CHO cells stably expressing hVR1. The format is cell-based. As to the method: 1. hVR1 FLIPR (Fluorometric Image Plate Reader) Screening Assay
Transfected CHO cells, stably expressing hVR1 (15,000 cells/well) are seeded in 50 ul media in a black clear bottom 384 plate (Greiner) and grown in a humidified incubator (37° C., 2% CO2), 24-30 hours prior to experiment.
Subsequently, the media is removed from the cell plate by inversion and 2 μM Fluo-4 is added using a multidrop (Labsystems). Following the 40 minutes dye incubation in the dark at 37° C. and 2% CO2, the extracellular dye present is washed away using an EMBLA (Scatron), leaving the cells in 40 ul of assay buffer (1× HBSS, 10 mM D-Glucose, 1 mM CaCl2, 10 mM HEPES, 10×7.5% NaHCO3 and 2.5 mM Probenecid).
FLIPR Assay—IC50 Determination Protocol
For IC50 determinations the fluorescence is read using FLIPR filter 1 (em […]). A cellular baseline recording is taken for 30 seconds, followed by a 20 μl addition of 10, titrated half-log concentrations of the test compound, yielding cellular concentration ranging from 3 μM to 0.1 nM. Data is collected every 2 seconds for a further 5 minutes prior to the addition of a VR1 agonist solution: either 50 nM solution of capsaicin or MES (2-[N-morpholino]ethanesulfonic acid) buffer (pH 5.2), by the FLIPR pipettor. The FLIPR continues to collect data for a further 4 minutes. Compounds having antagonistic properties against the hVR1 will inhibit the increase in intracellular calcium in response to the capsaicin addition. This consequently leading to a reduction in fluorescence signal and providing a reduced fluorescence reading, compared with no compound, buffer controls. Data is exported by the FLIPR program as a sum of fluorescence calculated under the curve upon the addition of capsaicin. Maximum inhibition, Hill slope and IC50 data for each compound are generated.

Data set [1] can be described thus: Metabolic stability in rat hepatocytes (intrinsic clearance). Type of data set: in vitro ADME. To be noted: male, Sprague-Dawley, freshly isolated rat hepatocytes, read-out: rClint hep. As to the method: Metabolic Stability in Rat Hepatocytes
Cells source: in house fresh isolated rat hepatocytes from male sprague-Dawley.
1 μM of compound incubated in Krebs-Heinsleit buffer with 1×10^6 cells in 37° C. for 0, 15, 30, 60 and 90 min. A total volume of each incubation was 100 μL containing 0.1% DMSO. The reaction was stopped by adding 100 μL acetonitrile.
After reaction was stopped. The sample was centrifuged at 1900 g for 5 min. Supernatant was transferred to a clean tube for analysis.

The structures appear in SMILES notation.

T1 sequence (Q8NER1 whole entry): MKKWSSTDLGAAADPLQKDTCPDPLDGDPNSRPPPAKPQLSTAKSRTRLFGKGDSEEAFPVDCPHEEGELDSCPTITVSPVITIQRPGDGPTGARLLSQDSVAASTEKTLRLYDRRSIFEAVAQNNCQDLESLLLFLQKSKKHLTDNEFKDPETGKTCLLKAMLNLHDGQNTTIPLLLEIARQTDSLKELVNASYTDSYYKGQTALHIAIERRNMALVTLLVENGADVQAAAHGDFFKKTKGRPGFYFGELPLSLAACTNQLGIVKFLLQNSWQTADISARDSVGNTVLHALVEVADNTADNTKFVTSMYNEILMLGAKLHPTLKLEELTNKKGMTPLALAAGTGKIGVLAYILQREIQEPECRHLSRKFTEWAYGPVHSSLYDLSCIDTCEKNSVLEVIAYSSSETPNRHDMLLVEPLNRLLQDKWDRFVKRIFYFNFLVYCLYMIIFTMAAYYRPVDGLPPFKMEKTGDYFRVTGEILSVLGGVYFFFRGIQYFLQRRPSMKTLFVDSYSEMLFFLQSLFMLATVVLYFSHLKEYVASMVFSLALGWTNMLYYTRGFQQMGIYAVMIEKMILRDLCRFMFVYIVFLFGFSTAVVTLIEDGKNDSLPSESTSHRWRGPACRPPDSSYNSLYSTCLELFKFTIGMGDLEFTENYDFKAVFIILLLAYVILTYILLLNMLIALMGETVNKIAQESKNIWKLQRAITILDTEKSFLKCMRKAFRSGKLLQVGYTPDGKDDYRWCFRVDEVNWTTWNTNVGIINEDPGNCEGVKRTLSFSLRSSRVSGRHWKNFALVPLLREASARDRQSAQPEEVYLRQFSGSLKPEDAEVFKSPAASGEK

For the molecule `O=C(Nc1ccc2sc(CO)nc2c1)c1ccc(OC(F)(F)C(F)F)cc1` [Example 5, N-[2-(hydroxymethyl)-1,3-benzothiazol-5-yl]-4-(1,1,2,2-tetrafluoroethoxy)benzamide], the IC50 on hVR1 (agonist capsaicin) is 8 nM.
Same read-out and setting: with `O=C(Nc1ccc2sc(CO)nc2c1)c1ccc(C2CCCCC2)cc1` [Example 6, 4-Cyclohexyl-N-[2-(hydroxymethyl)-1,3-benzothiazol-5-yl]benzamide] the figure was 23 nM; with `O=C(Nc1ccc2sc(CO)nc2c1)c1ccc(C(F)(F)F)c(F)c1` [Example 7, 3-Fluoro-N-[2-(hydroxymethyl)-1,3-benzothiazol-5-yl]-4-(trifluoromethyl)benzamide], 4 nM.
In the case of `O=C(Nc1ccc2sc(CO)nc2c1)c1ccc(C(F)(F)F)nc1` [Example 8, N-[2-(hydroxymethyl)-1,3-benzothiazol-5-yl]-6-(trifluoromethyl)nicotinamide], the IC50 on hVR1 (agonist pH 5.2 buffer) amounted to 417 nM.
On hVR1 (agonist capsaicin), `O=C(Nc1ccc2sc(CO)nc2c1)c1ccc(N2CCCCC2)nc1` [Example 9, N-[2-(hydroxymethyl)-1,3-benzothiazol-5-yl]-6-piperidin-1-ylnicotinamide] registered an IC50 of 86 nM.
As to `CN(C)c1ccc(C(=O)Nc2ccc3sc(CO)nc3c2)c2ccccc12` [Example 10, 4-(dimethylamino)-N-[2-(hydroxymethyl)-1,3-benzothiazol-5-yl]-1-naphthamide], the IC50 on hVR1 (agonist capsaicin) was found to be 54 nM. Also, in data set [1], the Hepatocyte intrinsic clearance at 1 μM was 14 µL/min/mg.
For `Cc1cc(OC(C)(C)C)ccc1C(=O)Nc1ccc2sc(CO)nc2c1` [Example 23, 4-tert-butoxy-N-[2-(hydroxymethyl)-1,3-benzothiazol-5-yl]-2-methylbenzamide], in that order: 59 nM and 22 µL/min/mg.
As for `Cc1cc(OC(C)C)ccc1C(=O)Nc1ccc2sc(CO)nc2c1` [Example 24, N-[2-(hydroxymethyl)-1,3-benzothiazol-5-yl]-4-isopropoxy-2-methylbenzamide], the IC50 at hVR1 (agonist capsaicin) worked out at 47 nM. The Hepatocyte intrinsic clearance at 1 μM in data set [1] was found to be 10 µL/min/mg.
At hVR1 (agonist capsaicin), `Cc1cc(OC(C)C)ccc1C(=O)Nc1ccc2sc(CO)nc2c1F` [Example 40, N-[4-fluoro-2-(hydroxymethyl)-1,3-benzothiazol-5-yl]-4-isopropoxy-2-methylbenzamide] yielded an IC50 of 67 nM. Besides, the Hepatocyte intrinsic clearance at 1 μM in data set [1] turned out to be 11.8 µL/min/mg.
With `Cc1nc(C(F)(F)F)ccc1C(=O)Nc1ccc2sc(CO)nc2c1F` [Example 41, N-[4-fluoro-2-(hydroxymethyl)-1,3-benzothiazol-5-yl]-2-methyl-6-(trifluoromethyl)nicotinamide], at hVR1 (agonist capsaicin), the IC50 was found to be 1950 nM.
On the same count and under the same terms, as for `O=C(Nc1ccc2sc(CO)nc2c1F)c1ccc(C(F)(F)F)nc1` [Example 42, N-[4-fluoro-2-(hydroxymethyl)-1,3-benzothiazol-5-yl]-6-(trifluoromethyl)nicotinamide], the figure is 904 nM; as for `O=C(Nc1ccc2sc(CO)nc2c1F)c1ccc(OCC(F)(F)F)nc1` [Example 43, N-[4-fluoro-2-(hydroxymethyl)-1,3-benzothiazol-5-yl]-6-(2,2,2-trifluoroethoxy)nicotinamide], 489 nM.
